Conditions in one data set: not given
In turn, `COC(=O)c1c(Cl)c(Cl)c(C(=O)OC)c(Cl)c1Cl` displayed a boiling point of 365 °C, a log10 Koc (L/kg) of 3.7, a log10 vapour pressure (mmHg) of -5.6 and a melting point of 155 °C. The ready biodegradability entry is on record as “not readily biodegradable”.
`COc1cc(O)cc(O)c1`: the melting point came to 80.3 °C.
Turning to `O[Si](c1ccccc1)(c1ccccc1)c1ccccc1`, the melting point was determined as 155 °C.
Same read-out and setting: next, `Oc1cccc(S)c1`: 16.5 °C.
The molecule `Cc1ccc([N+](=O)[O-])c(C)c1` showed a boiling point of 247 °C, a log10 vapour pressure (mmHg) of -1.24 and a melting point of 9 °C.
As to `CCN(CC)C(=O)c1cccnc1`, the boiling point stood at 298 °C and the melting point turned out to be 25 °C.
Molecule `CCCCCCCCCCCCCCCC1CCCCC1` registered a boiling point of 373 °C, a log10 vapour pressure (mmHg) of -6.46 and a melting point of 29 °C.
Take `Fc1cc(F)cc(F)c1`: the boiling point was 75.5 °C, the log10 vapour pressure (mmHg) was 2.02 and the melting point was -5.5 °C.
In turn, `O=C(O)c1cc(F)ccc1F` gave a melting point of 133 °C.
Regarding `O=[N+]([O-])c1ccc(C(F)(F)F)cc1`, the melting point was 39 °C.
For `CC1=CCC(=C(C)C)CC1`, the boiling point came out at 186 °C, the log10 Henry constant (atm·m³/mol) was -1.58, the log10 vapour pressure (mmHg) is -0.129 and the ready biodegradability entry is given as “readily biodegradable”.
Take `COc1cc(C=CC(=O)O)cc(OC)c1OC`: the melting point was 127 °C.
The molecule `CC(O)Cn1c(=O)c2c(ncn2C)n(C)c1=O` (stereo unspecified) showed a melting point of 141 °C.
Still for that read-out and setting: next, `CC(C)(C)N(CCO)CCO`: 42 °C.
`C#CCOC(=O)/C=C(C)/C=C/CC(C)CCCC(C)C` (stereo unspecified) yielded a log10 vapour pressure (mmHg) of -5.14.
The molecule `CCCCCl` showed a boiling point of 78.6 °C, a log10 Henry constant (atm·m³/mol) of -1.78, a log10 Koa of 2.72 and a log10 vapour pressure (mmHg) of 2.01. In addition, the melting point was -123 °C and the ready biodegradability result is “not readily biodegradable”.
For the molecule `Nc1ccc(/C=C/c2ccc(N)cc2S(=O)(=O)O)c(S(=O)(=O)O)c1`, the ready biodegradability result was “not readily biodegradable”.
The molecule `CCC/C=C/COC(C)=O` came in with a boiling point of 166 °C.
Take `CCOC(=O)NNC(=O)OCC`: the melting point is 135 °C.
The molecule `Cc1ccccc1CC=O` displayed a boiling point of 221 °C.
`Ic1cc(I)c(I)c(I)c1` came in with a melting point of 148 °C.
Regarding `C=CC(Cl)CCl` (stereo unspecified), the boiling point was found to be 116 °C, the log10 vapour pressure (mmHg) worked out at 1.34, the melting point is -61 °C and the ready biodegradability result is given as “not readily biodegradable”.
Regarding `Clc1cc(Cl)c2c(c1)Oc1cc(Cl)c(Cl)cc1O2`, the log10 vapour pressure (mmHg) is -8.2 and the melting point came to 194 °C.
For `O=C(O)c1cccc([N+](=O)[O-])c1C(=O)O`, the ready biodegradability result is on record as “not readily biodegradable”.
The molecule `C[C@@]12C(=O)OC(=O)[C@]1(C)C1CCC2O1` showed a melting point of 218 °C.
Take `CC(=O)c1ccc(C)cc1C`: the boiling point came to 228 °C.
`CCN(CC)CCOC(=O)c1ccc(N)cc1.Cl` showed a melting point of 156 °C.
Molecule `CCCCCCCCSCCO` registered a log10 vapour pressure (mmHg) of -3.23 and a melting point of 0 °C.
`CCCCCCCCCCCCCCC1CCCCC1` showed a boiling point of 360 °C and a melting point of 24 °C.
In the case of `CO[C@H]1C=C[C@H](OC)O1`, the boiling point is 161 °C.
Molecule `O=C(Nc1ccc2ncccc2c1)Nc1ccc2ncccc2c1` gave a melting point of 262 °C.
Molecule `CCOC(=O)c1ccc(Br)cc1` came in with a boiling point of 263 °C.
Take `OCC=Cc1ccccc1`: the log10 vapour pressure (mmHg) is -1.62, the melting point was determined as 33 °C and the ready biodegradability entry was “readily biodegradable”.
`O=C1C(Cl)=C(NC(=O)C(Cl)Cl)C(=O)c2ccccc21`: the melting point came to 212 °C.
Turning to `CCCC(C)CC` (stereo unspecified), the boiling point was 91 °C, the log10 biodegradation half-life (days) turned out to be 0.954, the log10 vapour pressure (mmHg) is 1.79 and the melting point was -119 °C.
Molecule `CC(C)OC(=O)C1(S(=O)(=O)c2ccc(Cl)cc2)CCCC1` had a melting point of 92.5 °C.
For the molecule `CC1Cc2ccccc2C1`, the boiling point is 195 °C.
With `Clc1cc(Cl)c(-c2ccccc2)c(Cl)c1`, the log10 vapour pressure (mmHg) was -3.15.
In turn, `COC(=O)C(=O)OC` came in with a boiling point of 164 °C, a log10 vapour pressure (mmHg) of 0.0584 and a melting point of 54.3 °C.
`COc1cccc2c1C(=O)c1c(O)c3c(c(O)c1C2=O)C[C@@](O)(C(=O)CO)C[C@@H]3O[C@H]1C[C@H](N)[C@H](O)[C@H](C)O1` registered a melting point of 230 °C.
In turn, `CC1(C)C(C=C(Cl)Cl)C1C(=O)OCc1cccc(Oc2ccccc2)c1` (stereo unspecified) registered a log10 Koc (L/kg) of 4.8, a log10 vapour pressure (mmHg) of -7.66 and a melting point of 34 °C.
`FC(F)(F)C(F)(F)C(F)(F)C(F)(F)C(F)(F)C(F)(F)C(F)(F)F` came in with a boiling point of 82.5 °C, a log10 vapour pressure (mmHg) of 1.88 and a melting point of -78 °C.
Molecule `O=C(O)Cc1ccc(O)cc1` registered a melting point of 152 °C.
Molecule `C[C@](N)(Cc1ccc(O)cc1)C(=O)O` displayed a melting point of 312 °C.
Molecule `CC1=C(/C=C/C(C)=C/C=C/C(C)=C/C=C/C=C(C)/C=C/C=C(C)/C=C/C2=C(C)C(=O)CCC2(C)C)C(C)(C)CCC1` returned a melting point of 179 °C.
As to `CCOC(=O)CCCCCCC(=O)OCC`, the boiling point came to 283 °C and the melting point amounted to 5.9 °C.
In turn, `O[C@@H]1CC[C@H](O)C1` gave a melting point of 35.5 °C.
On to `COC(=O)/C(C)=C/OP(=S)(OC)OC`, for which the log10 vapour pressure (mmHg) is -2.92.
Molecule `CCCC(=O)CC(C)C` registered a boiling point of 155 °C.
Regarding `CNC(=O)Nc1ccc(OC)c(Cl)c1`, the log10 Koc (L/kg) came to 1.84.
The molecule `CCCCCCCC(=O)OCCC` registered a boiling point of 226 °C and a melting point of -46.2 °C.
Turning to `Clc1ccc(-c2c(Cl)cc(Cl)c(Cl)c2Cl)cc1Cl`, the melting point was found to be 107 °C.
Still for that read-out and setting: next, `Cc1ncc([N+](=O)[O-])n1C`: 138 °C.
As to `CC=C1CC2C=CC1C2` (stereo unspecified), the boiling point is 146 °C and the ready biodegradability entry is on record as “not readily biodegradable”.
With `C[C@@H]1CC[C@H]2C(C)(C)[C@H]3C[C@@]12CC[C@@]3(C)O`, the melting point turned out to be 86 °C.
As to `Nc1ncc(C=O)s1`, the ready biodegradability result is reported as “readily biodegradable”.
Regarding `CC(=O)OCCOC(C)=O`, the boiling point came out at 190 °C, the log10 vapour pressure (mmHg) is -1.11, the melting point is -31 °C and the ready biodegradability result is reported as “readily biodegradable”.
For `CCCC(=O)C(=O)CCC`, the boiling point came out at 168 °C.
Turning to `CCCCC(=O)N(C)C`, the melting point was -51 °C.
In turn, `Clc1ccc2c(c1)Oc1ccccc1O2` returned a log10 vapour pressure (mmHg) of -4.89 and a melting point of 88 °C.
In the case of `O=CNC(O)C(Cl)(Cl)Cl` (stereo unspecified), the melting point stood at 120 °C.
In turn, `CCOCN(C(=O)CCl)c1c(C)cccc1CC` gave a log10 Koc (L/kg) of 2.32.
`O=[N+]([O-])c1ccc(F)c([N+](=O)[O-])c1`: the boiling point was 296 °C and the melting point is 25.8 °C.
In the case of `O=c1ccc2ccccc2[nH]1`, the melting point was found to be 200 °C.
Take `COC(=O)c1cccc(O)c1`: the boiling point was determined as 281 °C and the melting point turned out to be 73 °C.
Consider `COc1cccc2ccccc12`, for which the boiling point worked out at 269 °C and the ready biodegradability entry is “not readily biodegradable”.
With `c1ccc2cc3cc4ccccc4cc3cc2c1`, the log10 Koc (L/kg) amounted to 5.81, the log10 vapour pressure (mmHg) is -8.6 and the melting point came to 357 °C.
Molecule `COc1ccn(C)c(=O)c1C#N` registered a melting point of 202 °C.
With `CCC[C@H]1CCCCN1`, the boiling point was found to be 166 °C.
With `CCC(C)C(C)O` (stereo unspecified), the boiling point was 134 °C.

The data set is the same for the next values; noted with them: fish.
As to `O[Si](c1ccccc1)(c1ccccc1)c1ccccc1`, the log10 biotransformation half-life (days) was 0.07.
Turning to `Clc1ccc(-c2cc(Cl)c(Cl)c(Cl)c2Cl)c(Cl)c1`, the log10 biotransformation half-life (days) is 2.34.
Turning to `CCCCCl`, the log10 BCF came out at 1.23 and the log10 biotransformation half-life (days) was -0.45.
Consider `C=CC(Cl)CCl` (stereo unspecified), for which the log10 BCF was 1.11 and the log10 biotransformation half-life (days) was -1.28.
Molecule `O=C(O)c1cccc([N+](=O)[O-])c1C(=O)O` gave a log10 BCF of 0.72 and a log10 biotransformation half-life (days) of -1.57.
The molecule `Clc1ccc(-c2c(Cl)cc(Cl)c(Cl)c2Cl)cc1Cl` gave a log10 biotransformation half-life (days) of 2.57.
The molecule `CC=C1CC2C=CC1C2` (stereo unspecified) gave a log10 BCF of 2.04 and a log10 biotransformation half-life (days) of -0.56.
`COc1cccc2ccccc12` registered a log10 BCF of 2.21 and a log10 biotransformation half-life (days) of 0.39.

Values taken from the OPERA property sets (Mansouri et al. 2018).
